# Data as given in patent US7396837B2, “Antitumoral analogs of lamellarins” (Pharma Mar, S.A.U., priority 2002, dated 2008).
# Where two headings read alike, the source gives them in different places.
# Legend:
# Assay type in all cases: cell-based
# A-549 = assay: SRB colorimetric cell growth inhibition assay, A-549; conditions: for GI50: GI=growth inhibition, read-out: GI50 A-549; for CC50: cell killing (cytotoxic effect), read-out: LC50 A-549; for IC (TGI): read-out: TGI A-549
# Excerpt: (§1) The finality of these assays is to interrupt the growth of an “in vitro” tumor cell culture by means a continued exhibition of the cells to the sample to be testing.
# (§2) A colorimetric type of assay, using sulforhodamine B (SRB) reaction has been adapted for a quantitative measurement of cell growth and viability (following the technique described by P. A. Skehan, et al., J. Natl. Cancer Inst. 1990, 82, 1107-1112).
# (§3) This form of assay employs 96 well cell culture microplates of 9 mm diameter (T. Mosmann et al., J. of Immunological Methods 1983, 65, 55-63; G. T. Faircloth et al., J. of Tissue and Culture Methods 1988, 11, 201-205).
# (§4) Most of the cell lines are obtained from American Type Culture Collection (ATCC) derived from different human cancer types.
# (§5) The values for mean +/− SD of data from triplicate wells are calculated. Some parameters for cellular responses can be calculated: GI=growth inhibition, TGI=total growth inhibition (cytostatic effect) and LC=cell killing (cytotoxic effect).
# IGROV = assay: SRB colorimetric cell growth inhibition assay, IGROV; conditions: IGROV; for GI50: GI=growth inhibition, read-out: GI50 IGROV; for CC50: cell killing (cytotoxic effect), read-out: LC50 IGROV; for IC (TGI): read-out: TGI IGROV
# Excerpt: as §1, §2, §3, §4, §5
# HeLa-APL = assay: SRB colorimetric cell growth inhibition assay, HeLa-APL (aplidine resistant); conditions: Homo sapiens, HELA-APL; for GI50: GI=growth inhibition, read-out: GI50 HELA-APL; for CC50: cell killing (cytotoxic effect), read-out: LC50 HELA-APL; for IC (TGI): total growth inhibition (cytostatic effect), read-out: TGI HELA-APL
# Excerpt: as §1, §2, §3, §4, §5
# SK-MEL-28 = assay: SRB colorimetric cell growth inhibition assay, SK-MEL-28; conditions: for GI50: GI=growth inhibition, read-out: GI50 MEL-28; for CC50: cell killing (cytotoxic effect), read-out: LC50 MEL-28; for IC (TGI): read-out: TGI MEL-28
# Excerpt: as §1, §2, §3, §4, §5
# SK-BR-3 = assay: SRB colorimetric cell growth inhibition assay, SK-BR-3; conditions: for GI50: GI=growth inhibition, read-out: GI50 SK-BR-3; for CC50: cell killing (cytotoxic effect), read-out: LC50 SK-BR-3; for IC (TGI): read-out: TGI SK-BR-3
# Excerpt: as §1, §2, §3, §4, §5
# IGROV-ET = assay: SRB colorimetric cell growth inhibition assay, IGROV-ET (ET-743 resistant); conditions: IGROV-ET; for GI50: GI=growth inhibition, read-out: GI50 IGROV-ET; for CC50: cell killing (cytotoxic effect), read-out: LC50 IGROV-ET; for IC (TGI): read-out: TGI IGROV-ET
# Excerpt: as §1, §2, §3, §4, §5
# LoVo = assay: SRB colorimetric cell growth inhibition assay, LoVo; conditions: for GI50: GI=growth inhibition, read-out: GI50 LOVO; for CC50: cell killing (cytotoxic effect), read-out: LC50 LOVO; for IC (TGI): read-out: TGI LOVO
# Excerpt: as §1, §2, §3, §4, §5
# PANC-1 = assay: SRB colorimetric cell growth inhibition assay, PANC-1; conditions: for GI50: GI=growth inhibition, read-out: GI50 PANC-1; for CC50: cell killing (cytotoxic effect), read-out: LC50 PANC-1; for IC (TGI): read-out: TGI PANC-1
# Excerpt: as §1, §2, §3, §4, §5
# HT-29 = assay: SRB colorimetric cell growth inhibition assay, HT-29; conditions: for GI50: GI=growth inhibition, read-out: GI50 HT-29; for CC50: cell killing (cytotoxic effect), read-out: LC50 HT-29; for IC (TGI): read-out: TGI HT-29
# Excerpt: as §1, §2, §3, §4, §5
# HeLa = assay: SRB colorimetric cell growth inhibition assay, HeLa; conditions: Homo sapiens, HeLa; for GI50: GI=growth inhibition, read-out: GI50 HELA; for CC50: cell killing (cytotoxic effect), read-out: LC50 HELA; for IC (TGI): total growth inhibition (cytostatic effect), read-out: TGI HELA
# Excerpt: as §1, §2, §3, §4, §5
# LoVo-Dox = assay: SRB colorimetric cell growth inhibition assay, LoVo-Dox (MDR); conditions: LOVO-DOX; for GI50: GI=growth inhibition, read-out: GI50 LOVO-DOX; for CC50: cell killing (cytotoxic effect), read-out: LC50 LOVO-DOX; for IC (TGI): read-out: TGI LOVO-DOX
# Excerpt: as §1, §2, §3, §4, §5
# DU-145 = assay: SRB colorimetric cell growth inhibition assay, DU-145; conditions: for GI50: GI=growth inhibition, read-out: GI50 DU-145; for CC50: cell killing (cytotoxic effect), read-out: LC50 DU-145; for IC (TGI): read-out: TGI DU-145
# Excerpt: as §1, §2, §3, §4, §5
# [1] = Homo sapiens, A549, A-549, total growth inhibition (cytostatic effect)
# [2] = Homo sapiens, total growth inhibition (cytostatic effect)
# [3] = Homo sapiens, SK-MEL-28, MEL-28
# [4] = Homo sapiens, SK-MEL-28, MEL-28, total growth inhibition (cytostatic effect)
# [5] = Homo sapiens, SK-BR-3, SK-BR-3, total growth inhibition (cytostatic effect)
# [6] = Homo sapiens, LoVo, total growth inhibition (cytostatic effect)
# [7] = Homo sapiens, PANC-1, PANC-1, total growth inhibition (cytostatic effect)
# [8] = Homo sapiens, HT-29, HT-29, total growth inhibition (cytostatic effect)
# [9] = Homo sapiens, DU-145, DU-145, total growth inhibition (cytostatic effect)
# [10] = total growth inhibition (cytostatic effect)
smiles,measurement,setting,value
CCCCCCCC(=O)Oc1ccc(-c2c3n(c4c(=O)oc5cc(OC(=O)CCCCCCC)c(OC)cc5c24)CCc2cc(OC(=O)CCCCCCC)c(OC)cc2-3)cc1OC [Compound 28],GI50,"A-549; Homo sapiens, A549, A-549",1.39 µM
same,CC50,"A-549; Homo sapiens, A549, A-549",11.4 µM
same,IC (TGI),A-549; [1],11.4 µM
same,GI50,IGROV; Homo sapiens,1.64 µM
same,CC50,IGROV; Homo sapiens,9.61 µM
same,IC (TGI),IGROV; [2],3.97 µM
same,GI50,HeLa-APL,9.53 µM
same,CC50,HeLa-APL,11.4 µM
same,IC (TGI),HeLa-APL,11.4 µM
same,GI50,SK-MEL-28; [3],2.24 µM
same,CC50,SK-MEL-28; [3],11.4 µM
same,IC (TGI),SK-MEL-28; [4],7.28 µM
same,GI50,"SK-BR-3; Homo sapiens, SK-BR-3, SK-BR-3",0.941 µM
same,CC50,"SK-BR-3; Homo sapiens, SK-BR-3, SK-BR-3",11.4 µM
same,IC (TGI),SK-BR-3; [5],4.73 µM
same,GI50,IGROV-ET; Homo sapiens,11.4 µM
same,CC50,IGROV-ET; Homo sapiens,11.4 µM
same,IC (TGI),IGROV-ET; [2],11.4 µM
same,GI50,"LoVo; Homo sapiens, LoVo",0.634 µM
same,CC50,"LoVo; Homo sapiens, LoVo",11.4 µM
same,IC (TGI),LoVo; [6],5.16 µM
same,GI50,"PANC-1; Homo sapiens, PANC-1, PANC-1",1.91 µM
same,CC50,"PANC-1; Homo sapiens, PANC-1, PANC-1",11.4 µM
same,IC (TGI),PANC-1; [7],11.4 µM
same,GI50,"HT-29; Homo sapiens, HT-29, HT-29",0.111 µM
same,CC50,"HT-29; Homo sapiens, HT-29, HT-29",11.4 µM
same,IC (TGI),HT-29; [8],1.2 µM
same,GI50,HeLa,2.76 µM
same,CC50,HeLa,11.4 µM
same,IC (TGI),HeLa,9.24 µM
same,GI50,LoVo-Dox; Homo sapiens,11.4 µM
same,CC50,LoVo-Dox; Homo sapiens,11.4 µM
same,IC (TGI),LoVo-Dox; [2],11.4 µM
same,GI50,"DU-145; Homo sapiens, DU-145, DU-145",0.315 µM
same,CC50,"DU-145; Homo sapiens, DU-145, DU-145",7.32 µM
same,IC (TGI),DU-145; [9],1.47 µM
COc1cc2ccn3c(c(-c4ccc(OC(=O)[C@@H](N)C(C)C)c(OC)c4)c4c5cc(OC)c(OC(=O)[C@@H](N)C(C)C)cc5oc(=O)c43)c2cc1OC [Compound 14],GI50,A-549; A-549,0.555 µM
same,TGI A-549,"A-549; A-549, total growth inhibition (cytostatic effect)",1.40E−05 Molar
same,GI50,IGROV,0.49 µM
same,CC50,IGROV,14 µM
same,TGI IGROV,IGROV; [10],2.44E−06 Molar
same,GI50,HeLa-APL,2.6 µM
same,CC50,HeLa-APL,12.4 µM
same,IC (TGI),HeLa-APL,12.1 µM
same,GI50,SK-MEL-28; MEL-28,1.42 µM
same,CC50,SK-MEL-28; MEL-28,14 µM
same,TGI MEL-28,"SK-MEL-28; MEL-28, total growth inhibition (cytostatic effect)",1.40E−05 Molar
same,GI50,SK-BR-3; SK-BR-3,0.0424 µM
same,CC50,SK-BR-3; SK-BR-3,14 µM
same,TGI SK-BR-3,"SK-BR-3; SK-BR-3, total growth inhibition (cytostatic effect)",9.88E−08 Molar
same,GI50,IGROV-ET,0.745 µM
same,CC50,IGROV-ET,14 µM
same,TGI IGROV-ET,IGROV-ET; [10],4.97E−06 Molar
same,GI50,LoVo; LOVO,0.597 µM
same,TGI LOVO,"LoVo; LOVO, total growth inhibition (cytostatic effect)",2.47E−06 Molar
same,GI50,PANC-1; PANC-1,1.18 µM
same,TGI PANC-1,"PANC-1; PANC-1, total growth inhibition (cytostatic effect)",1.40E−05 Molar
same,GI50,HT-29; HT-29,2.47 µM
same,TGI HT-29,"HT-29; HT-29, total growth inhibition (cytostatic effect)",7.26E−06 Molar
same,GI50,HeLa,1.83 µM
same,CC50,HeLa,12.4 µM
same,IC (TGI),HeLa,9.63 µM
same,GI50,LoVo-Dox,0.497 µM
same,TGI LOVO-DOX,LoVo-Dox; [10],1.45E−06 Molar
same,GI50,DU-145; DU-145,0.517 µM
same,CC50,DU-145; DU-145,14 µM
same,TGI DU-145,"DU-145; DU-145, total growth inhibition (cytostatic effect)",2.19E−06 Molar
COc1cc(-c2c3c4cc(OC)c(OC(=O)CCC5CCCCC5)cc4oc(=O)c3n3ccc4cc(OC(=O)CCC5CCCCC5)c(OC)cc4c23)ccc1OC(=O)CCC1CCCCC1 [Compound 12],GI50,"A-549; Homo sapiens, A549, A-549",1.2 µM
same,CC50,"A-549; Homo sapiens, A549, A-549",10.9 µM
same,IC (TGI),A-549; [1],6.64 µM
same,GI50,IGROV; Homo sapiens,1.42 µM
same,CC50,IGROV; Homo sapiens,8.01 µM
same,IC (TGI),IGROV; [2],3.38 µM
same,GI50,HeLa-APL,3.66 µM
same,CC50,HeLa-APL,10.9 µM
same,IC (TGI),HeLa-APL,10.9 µM
same,GI50,SK-MEL-28; [3],1.77 µM
same,CC50,SK-MEL-28; [3],10.9 µM
same,IC (TGI),SK-MEL-28; [4],5.98 µM
same,GI50,"SK-BR-3; Homo sapiens, SK-BR-3, SK-BR-3",0.698 µM
same,CC50,"SK-BR-3; Homo sapiens, SK-BR-3, SK-BR-3",10.9 µM
same,IC (TGI),SK-BR-3; [5],3.45 µM
same,GI50,IGROV-ET; Homo sapiens,10.9 µM
same,CC50,IGROV-ET; Homo sapiens,10.9 µM
same,IC (TGI),IGROV-ET; [2],10.9 µM
same,GI50,"LoVo; Homo sapiens, LoVo",1.83 µM
same,CC50,"LoVo; Homo sapiens, LoVo",10.9 µM
same,IC (TGI),LoVo; [6],7.41 µM
same,GI50,"PANC-1; Homo sapiens, PANC-1, PANC-1",1.62 µM
same,CC50,"PANC-1; Homo sapiens, PANC-1, PANC-1",10.9 µM
same,IC (TGI),PANC-1; [7],8.94 µM
same,GI50,"HT-29; Homo sapiens, HT-29, HT-29",0.0811 µM
same,CC50,"HT-29; Homo sapiens, HT-29, HT-29",10.9 µM
same,IC (TGI),HT-29; [8],0.841 µM
same,GI50,HeLa,1.66 µM
same,CC50,HeLa,10.9 µM
same,IC (TGI),HeLa,7.5 µM
same,GI50,LoVo-Dox; Homo sapiens,10.9 µM
same,CC50,LoVo-Dox; Homo sapiens,10.9 µM
same,IC (TGI),LoVo-Dox; [2],10.9 µM
same,GI50,"DU-145; Homo sapiens, DU-145, DU-145",0.249 µM
same,CC50,"DU-145; Homo sapiens, DU-145, DU-145",7.07 µM
same,IC (TGI),DU-145; [9],1.43 µM
